{"source": "patent US10947213B1", "about": "(Merck Patent GmbH, priority 2015, dated 2021)", "note": "Counter-ions that a name gives are not always drawn.", "data": [{"target": "T1, TLR7/NFKb HEK cells (Homo sapiens, UniProt Q9NYK1)", "T1 construct": "expressed in transfected cells; host or cells: HEK cells (TLR7/NFKb reporter line)", "T1 sequence (Q9NYK1 27-1049)": "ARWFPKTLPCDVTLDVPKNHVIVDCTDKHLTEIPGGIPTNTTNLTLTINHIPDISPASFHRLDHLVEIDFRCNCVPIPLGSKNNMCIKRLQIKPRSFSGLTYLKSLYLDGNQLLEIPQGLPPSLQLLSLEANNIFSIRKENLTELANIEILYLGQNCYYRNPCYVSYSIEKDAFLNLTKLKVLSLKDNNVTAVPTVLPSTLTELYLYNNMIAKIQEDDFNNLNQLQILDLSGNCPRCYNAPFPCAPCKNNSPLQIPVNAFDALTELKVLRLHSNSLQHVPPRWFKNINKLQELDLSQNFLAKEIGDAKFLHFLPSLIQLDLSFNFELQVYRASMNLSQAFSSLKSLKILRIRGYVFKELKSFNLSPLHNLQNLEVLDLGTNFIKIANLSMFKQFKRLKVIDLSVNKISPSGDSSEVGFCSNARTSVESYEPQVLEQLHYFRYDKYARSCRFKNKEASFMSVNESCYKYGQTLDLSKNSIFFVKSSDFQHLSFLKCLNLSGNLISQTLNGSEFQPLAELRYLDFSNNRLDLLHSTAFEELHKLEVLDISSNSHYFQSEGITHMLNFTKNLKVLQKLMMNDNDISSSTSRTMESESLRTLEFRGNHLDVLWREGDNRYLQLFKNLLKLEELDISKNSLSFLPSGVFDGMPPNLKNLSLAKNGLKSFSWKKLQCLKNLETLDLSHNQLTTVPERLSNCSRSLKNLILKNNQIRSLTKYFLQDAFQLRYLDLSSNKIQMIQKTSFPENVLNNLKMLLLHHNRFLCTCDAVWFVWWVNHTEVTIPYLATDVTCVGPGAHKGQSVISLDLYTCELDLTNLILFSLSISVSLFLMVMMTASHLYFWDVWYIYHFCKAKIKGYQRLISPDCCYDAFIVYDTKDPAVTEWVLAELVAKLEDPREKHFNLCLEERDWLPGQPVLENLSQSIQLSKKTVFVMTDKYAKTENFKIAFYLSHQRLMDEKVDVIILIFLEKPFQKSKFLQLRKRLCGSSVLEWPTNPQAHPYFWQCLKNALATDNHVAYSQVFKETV", "assay": "HEK Cell Assay (TLR7/NFKb reporter, Steady-Glo luciferase readout)", "format": "cell-based", "settings": "30 min compound preincubation, then R*48 agonist for 5 hours, read-out: Potency", "in_short": "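Steady-Glo luminescence after 5 h stimulation with R*48 agonist, following 30 min compound preincubation. Assay run in HEK cells carrying a TLR7/NFKb luciferase reporter, plated at 5000 cells/well and grown 24 h at 37° C (10% CO2) before treatment.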", "units": {"IC50": "nM"}, "values": [{"molecule": "CN1CCC(NC2CC(C(F)(F)F)CN(c3ccc(C#N)c4nccnc34)C2)C1=O", "note": "(single isomer, unassigned) [Compound 226]", "IC50": "< 1000"}, {"molecule": "CC(C)[C@H](O)C(=O)N[C@@H]1C[C@H](C)CN(c2ccnc3nccnc23)C1", "note": "[Compound 22, (S)-2-hydroxy-3-methyl-N-((3R,5S)-5-methyl-1-(pyrido[2,3-b]pyrazin-8-yl)piperidin-3-yl)butanamide]", "IC50": "1000 to 10000"}, {"molecule": "N#Cc1ccc(N2CCC(C(=O)NCCN3CCC(F)(F)CC3)CC2)c2cccnc12", "note": "[Compound 427, 1-(8-Cyano-quinolin-5-yl)-piperidine-4-carboxylic Acid [2-(4,4-difluoro-piperidin-1-yl)-ethyl]-amide]", "IC50": "1000 to 10000"}, {"molecule": "C[C@H]1C[C@@H](NC(=O)[C@H](N)c2ccccc2)CN(c2ccc(C#N)c3nccnc23)C1", "note": "[Compound 119, (2R)-2-amino-N-[(3R,5S)-1-(8-cyanoquinoxalin-5-yl)-5-methylpiperidin-3-yl]-2-phenylacetamide]", "IC50": "< 1000"}, {"molecule": "N#Cc1ccc(N2C[C@@H](N)C[C@@H](C(F)(F)F)C2)c2cccnc12", "note": "(relative stereo) [Compound 71, cis-5-(3-Amino-5-trifluoromethyl-piperidin-1-yl)-quinoline-8-carbonitrile]", "IC50": "< 1000"}, {"molecule": "CNCC(=O)N[C@@H]1C[C@H](C)CN(c2ccc(C#N)c3nccnc23)C1", "note": "[Compound 28, N-((3R,5S)-1-(8-cyanoquinoxalin-5-yl)-5-methylpiperidin-3-yl)-2-(methylamino)acetamide hydrochloride]", "IC50": "< 1000"}, {"molecule": "CCN(CC)CCNC(=O)C1CCN(c2ncc(F)c3nccnc23)CC1", "note": "[Compound 456, 1-(8-Fluoro-pyrido[3,4-b]pyrazin-5-yl)-piperidine-4-carboxylic Acid (2-diethylamino-ethyl)-amide]", "IC50": "> 10000"}, {"molecule": "C[C@H]1C[C@@H](NC(=O)CC2CNC2)CN(c2ccc(C(F)(F)F)c3nccnc23)C1", "note": "[Compound 300, 2-(azetidin-3-yl)-N-[(3R,5S)-5-methyl-1-[8-(trifluoromethyl)quinoxalin-5-yl]piperidin-3-yl]acetamide]", "IC50": "< 1000"}, {"molecule": "C[C@@H]1CN(c2ccc(C#N)c3nccnc23)C[C@H](CN2CCN(C)CC2)O1", "note": "[Compound 50, 8-((2R,6S)-2-methyl-6-((4-methylpiperazin-1-yl)methyl)morpholino)quinoxaline-5-carbonitrile]", "IC50": "< 1000"}, {"molecule": "C[C@H]1C[C@@H](NC(=O)CC2C3CC2CN(C)C3)CN(c2ccc(C#N)c3nccnc23)C1", "note": "(single isomer, unassigned) [Compound 357]", "IC50": "< 1000"}, {"molecule": "C[C@H]1C[C@@H](NC(=O)C2(N)COC2)CN(c2ccc(C#N)c3nccnc23)C1", "note": "[Compound 129, 3-amino-N-[(3R,5S)-1-(8-cyanoquinoxalin-5-yl)-5-methylpiperidin-3-yl]oxetane-3-carboxamide]", "IC50": "1000 to 10000"}, {"molecule": "C[C@H]1C[C@@H](NC(=O)C(C)(C)C2CCN(C)CC2)CN(c2ccc(C(F)(F)F)c3nccnc23)C1", "note": "[Compound 355, 2-methyl-N-[(3R,5S)-5-methyl-1-[8-(trifluoromethyl)quinoxalin-5-yl]piperidin-3-yl]-2-(1-methylpiperidin-4-yl)propanamide]", "IC50": "< 1000"}, {"molecule": "Cc1cc2c(N3C[C@@H](C)O[C@@H](C)C3)ccnc2n1C", "note": "[Compound 46, (2S,6R)-4-(1,2-dimethyl-1H-pyrrolo[2,3-b]pyridin-4-yl)-2,6-dimethylmorpholine]", "IC50": "> 10000"}, {"molecule": "N#Cc1ccc(N2C[C@@H](NC(=O)CC3(N)CCCCC3)C[C@@H](C(F)(F)F)C2)c2cccnc12", "note": "(racemic) [Compound 479, hydrochloride]", "IC50": "< 1000"}, {"molecule": "N#Cc1ccc(N2C[C@@H](NC(=O)CO)C[C@@H](C(F)(F)F)C2)c2nccnc12", "note": "(relative stereo) [Compound 223, cis-N-[1-(8-cyanoquinoxalin-5-yl)-5-(trifluoromethyl)piperidin-3-yl]-2-hydroxyacetamide]", "IC50": "1000 to 10000"}]}]}
